Like-named read-outs stand apart in the source and are kept apart here.

Drawing on US7932262B2 (Novartis AG, priority 2006, dated 2011), this text covers IC50 and EC50 for 32 compounds.

One assay concerns the target T1, PDK1 kinase (Homo sapiens, UniProt O15530).
T1 sequence (O15530 1-556): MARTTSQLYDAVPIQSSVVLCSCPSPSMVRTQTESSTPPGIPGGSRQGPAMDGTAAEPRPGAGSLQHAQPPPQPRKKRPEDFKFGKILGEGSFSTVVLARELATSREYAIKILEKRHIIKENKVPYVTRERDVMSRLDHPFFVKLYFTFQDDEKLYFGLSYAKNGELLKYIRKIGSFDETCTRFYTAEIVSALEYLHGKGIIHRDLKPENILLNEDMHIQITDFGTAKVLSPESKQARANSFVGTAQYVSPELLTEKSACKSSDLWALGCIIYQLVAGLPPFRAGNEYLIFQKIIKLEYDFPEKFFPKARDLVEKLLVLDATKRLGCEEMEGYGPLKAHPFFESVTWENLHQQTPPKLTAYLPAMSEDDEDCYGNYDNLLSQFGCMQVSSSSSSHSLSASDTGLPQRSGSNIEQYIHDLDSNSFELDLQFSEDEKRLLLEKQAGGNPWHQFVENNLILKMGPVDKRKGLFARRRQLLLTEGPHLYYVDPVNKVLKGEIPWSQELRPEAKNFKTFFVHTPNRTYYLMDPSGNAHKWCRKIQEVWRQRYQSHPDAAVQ
In words: PDK1 Kinase Alpha Screen Assay. In kind it is biochemical. The conditions noted are these: read-out: PDK1 IC50. The gist of the method:
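PDK1 phosphorylated 50 nM biotinylated PDK1-4 peptide with 10 uM ATP in Tris pH 7.5, 10 mM MgCl2, 2 mM DTT, 2.5% DMSO for 3-18 hours. After EDTA stop, phosphopeptide was detected by AlphaScreen using phospho-(Ser/Thr) PKA substrate antibody with protein A/streptavidin beads, read after overnight incubation.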

The test system of the next assay is A2780 cells. Description: Cell Proliferation Assay (Cell Titer Glo), A2780. The assay is classed as cell-based. To be noted: Homo sapiens, read-out: CPEC50 A2780. The gist of the method: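 Cells seeded at 1000/well, allowed to adhere 3-5 h, then exposed to DMSO-dissolved compounds for 3 days at 37° C., 5% CO2. Medium replaced before Cell Titer Glo addition; luminescence read after 10 min.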
(In general: Cellular ATP, detected with luciferase, serves as a proxy for viable cell number.)

[1] abbreviates: 72 h, A2780 cells, 3 days incubation.
Where [2] appears, read: Cell Proliferation Assay, A2780.

For `NC(=O)c1ccc(-c2ccc3cnc(Nc4ccc(S(N)(=O)=O)cc4)nc3c2)cn1` [Compound 131, 5-[2-(4-Sulfamoyl-phenylamino)-quinazolin-7-yl]-pyridine-2-carboxylic acid amide], at PDK1 kinase, the IC50 (as a rule, the concentration that gives 50% inhibition) was under 5 µM. Further, in the assay with A2780 cells (setting [1]), the EC50 fell in the range of 5 to 10 µM.

Consider `NS(=O)(=O)c1ccc(Nc2ncc3ccc(-c4cn[nH]c4)cc3n2)cc1` [Compound 132, 4-[7-(1H-Pyrazol-4-yl)-quinazolin-2-ylamino]-benzenesulfonamide], for which the concentration for half-maximal inhibition (IC50) at PDK1 kinase is under 5 µM. For the same compound, the EC50 in the assay on A2780 cells (setting [1]) is under 5 µM.

As to `CN1CCN(C(=O)c2ccc3cnc(Nc4ccc(S(N)(=O)=O)cc4)nc3c2)CC1` [Compound 135, 4-[7-(4-Methyl-piperazine-1-carbonyl)-quinazolin-2-ylamino]-benzenesulfonamide], the 50% inhibitory concentration (IC50) on PDK1 kinase lay within 10 to 25 µM. Further, in the assay with A2780 cells (setting [1]), the EC50 was 5 to 10 µM.

For `NS(=O)(=O)c1ccc(Nc2ncc3ccc(-c4ccc(C(=O)N5CCOCC5)cc4)cc3n2)cc1` [Compound 139, 4-{7-[4-(Morpholine-4-carbonyl)-phenyl]-quinazolin-2-ylamino}-benzenesulfonamide], the IC50 on PDK1 kinase was under 5 µM. For the same compound, the EC50 with A2780 cells (setting [1]) was 5 to 10 µM.

Take `NS(=O)(=O)c1ccc(Nc2ncc3cccc(C(=O)NC4CCCNC4)c3n2)cc1` (stereo not shown) [Compound 140, 2-(4-Sulfamoyl-phenylamino)-quinazoline-8-carboxylic acid piperidin-3-ylamide]: at PDK1 kinase, the 50% inhibitory concentration (IC50) was under 5 µM. Besides, the EC50 with A2780 cells (setting [1]) is 5 to 10 µM.

As to `CN(C)[C@@H]1CCN(C(=O)c2cccc3cnc(Nc4ccc(S(N)(=O)=O)cc4)nc23)C1` [Compound 141, 4-[8-((R)-3-Dimethylamino-pyrrolidine-1-carbonyl)-quinazolin-2-ylamino]-benzenesulfonamide], on PDK1 kinase, the half-inhibitory concentration (IC50) was under 5 µM. Further, in the assay on A2780 cells (setting [1]), the EC50 is 5 to 10 µM.

For the compound `NS(=O)(=O)c1ccc(Nc2ncc3cccc(C(=O)NC4CCNCC4)c3n2)cc1` [Compound 142, 2-(4-Sulfamoyl-phenylamino)-quinazoline-8-carboxylic acid piperidin-4-ylamide], the IC50 on PDK1 kinase is under 5 µM. Moreover, the EC50 in the assay with A2780 cells (setting [1]) lay in the range of 5 to 10 µM.

With `CN(C)[C@H]1CCN(C(=O)c2cccc3cnc(Nc4ccc(S(N)(=O)=O)cc4)nc23)C1` [Compound 143, 4-[8-((S)-3-Dimethylamino-pyrrolidine-1-carbonyl)-quinazolin-2-ylamino]-benzenesulfonamide], the concentration for half-maximal inhibition (IC50) on PDK1 kinase is under 5 µM. Moreover, the EC50 in the assay with A2780 cells (setting [1]) lay within 5 to 10 µM.

Regarding `NS(=O)(=O)c1ccc(Nc2ncc3cccc(C(=O)N[C@H]4CN5CCC4CC5)c3n2)cc1` [Compound 144, 2-(4-Sulfamoyl-phenylamino)-quinazoline-8-carboxylic acid (R)-3-quinuclidinylamide], the IC50 at PDK1 kinase lay within 5 to 10 µM. In addition, in the assay on A2780 cells (setting [1]), the EC50 was 5 to 10 µM.

Take `CC(C)COc1cccc2cnc(Nc3ccc(S(N)(=O)=O)cc3)nc12` [Compound 310, 4-(8-isobutoxyquinazolin-2-ylamino)benzenesulfonamide]: the IC50 at PDK1 kinase (PDK1 Kinase Alpha Screen Assay) is under 5 µM. In addition, the EC50 in the assay on A2780 cells (setting [2]) is under 5 µM.

`CC(=O)Nc1ccc(Nc2ncc3cccc(OC(C)C)c3n2)cc1` [Compound 311, N-(4-(8-isopropoxyquinazolin-2-ylamino)phenyl)acetamide]: the IC50 at PDK1 kinase (PDK1 Kinase Alpha Screen Assay) is under 5 µM. Besides, in the assay with A2780 cells (setting [2]), the EC50 was in the range of 5 to 10 µM.

Turning to `CC(=O)NS(=O)(=O)c1ccc(Nc2ncc3cccc(OC(C)C)c3n2)cc1` [Compound 312, N-(4-(8-isopropoxyquinazolin-2-ylamino)phenylsulfonyl)acetamide], the IC50 at PDK1 kinase (PDK1 Kinase Alpha Screen Assay) is under 5 µM. Moreover, in the assay on A2780 cells (setting [2]), the EC50 lay within 5 to 10 µM.

Take `CC(C)Oc1cccc2cnc(Nc3ccc(NC(=O)CN(C)C)cc3)nc12` [Compound 313, 2-(dimethylamino)-N-(4-(8-isopropoxyquinazolin-2-ylamino)phenyl)acetamide]: the IC50 on PDK1 kinase (PDK1 Kinase Alpha Screen Assay) fell in the range of 5 to 10 µM. The EC50 with A2780 cells (setting [2]) was under 5 µM.

Consider `Nc1ccc2cnc(Nc3ccc(S(N)(=O)=O)cc3)nc2c1` [Compound 315, 4-(7-aminoquinazolin-2-ylamino]-benzenesulfonamide], for which the IC50 on PDK1 kinase (PDK1 Kinase Alpha Screen Assay) is under 5 µM. The EC50 in the assay with A2780 cells (setting [2]) is under 5 µM.

`CC(=O)Nc1ccc2cnc(Nc3ccc(S(N)(=O)=O)cc3)nc2c1` [Compound 316, N-(2-(4-sulfamoylphenylamino)quinazolin-7-yl)acetamide]: on PDK1 kinase (PDK1 Kinase Alpha Screen Assay), the IC50 is under 5 µM. Also, in the assay on A2780 cells (setting [2]), the EC50 is under 5 µM.

Take `NS(=O)(=O)c1ccc(Nc2ncc3cccc(OCc4ccc5nnsc5c4)c3n2)cc1` [Compound 386, 4-(8-(benzo[d][1,2,3]thiadiazol-6-ylmethoxy)quinazolin-2-ylamino)benzenesulfonamide]: the half-inhibitory concentration (IC50) at PDK1 kinase (PDK1 Kinase Alpha Screen Assay) was under 5 µM. Further, the EC50 in the assay with A2780 cells (setting [2]) was under 5 µM.

Regarding `NS(=O)(=O)c1ccc(Nc2ncc3cc(Br)cc(O)c3n2)cc1` [Compound 388, 4-(6-bromo-8-hydroxyquinazolin-2-ylamino)benzenesulfonamide], on PDK1 kinase (PDK1 Kinase Alpha Screen Assay), the IC50 is under 5 µM. For the same compound, the EC50 in the assay on A2780 cells (setting [2]) is under 5 µM.

For the compound `NS(=O)(=O)c1ccc(Nc2ncc3cccc(OCCCn4c(=O)[nH]c5ccccc54)c3n2)cc1` [Compound 391, 4-(8-(3-(2-oxo-2,3-dihydro-1H-benzo[d]imidazol-1-yl)propoxy)quinazolin-2-ylamino)benzenesulfonamide], on PDK1 kinase (PDK1 Kinase Alpha Screen Assay), the IC50 is under 5 µM. The EC50 with A2780 cells (setting [2]) is 5 to 10 µM.

For `COCCN(C)Cc1cccc2cnc(Nc3ccc(S(N)(=O)=O)cc3)nc12` [Compound 392, 4-(8-(((2-methoxyethyl)(methyl)amino)methyl)quinazolin-2-ylamino)benzenesulfonamide], at PDK1 kinase (PDK1 Kinase Alpha Screen Assay), the IC50 was under 5 µM. For the same compound, the EC50 with A2780 cells (setting [2]) is under 5 µM.

For `COc1cccc(Oc2cccc3cnc(Nc4ccc(S(N)(=O)=O)cc4)nc23)c1` [Compound 406, 4-(8-(3-methoxyphenoxy)quinazolin-2-ylamino)benzenesulfonamide], at PDK1 kinase (PDK1 Kinase Alpha Screen Assay), the IC50 is under 5 µM. Also, in the assay on A2780 cells (setting [2]), the EC50 was under 5 µM.

Turning to `COc1ccc(Oc2cccc3cnc(Nc4ccc(S(N)(=O)=O)cc4)nc23)cc1` [Compound 407, 4-(8-(4-methoxyphenoxy)quinazolin-2-ylamino)benzenesulfonamide], the IC50 on PDK1 kinase (PDK1 Kinase Alpha Screen Assay) is under 5 µM. Moreover, the EC50 with A2780 cells (setting [2]) was under 5 µM.

As for `N#Cc1ccc(Oc2cccc3cnc(Nc4ccc(S(N)(=O)=O)cc4)nc23)cc1` [Compound 409, 4-(8-(4-cyanophenoxy)quinazolin-2-ylamino)benzenesulfonamide], at PDK1 kinase (PDK1 Kinase Alpha Screen Assay), the IC50 is under 5 µM. In the assay with A2780 cells (setting [2]), the EC50 was in the range of 5 to 10 µM.

For the compound `COc1cccc(Oc2ccc3cnc(Nc4ccc(S(N)(=O)=O)cc4)nc3c2)c1` [Compound 415, 4-(7-(3-methoxyphenoxy)quinazolin-2-ylamino)benzenesulfonamide], on PDK1 kinase (PDK1 Kinase Alpha Screen Assay), the IC50 is under 5 µM. In addition, the EC50 with A2780 cells (setting [2]) is under 5 µM.

As for `NS(=O)(=O)c1ccc(Nc2ncc3ccc(Br)c(O)c3n2)cc1` [Compound 421, 4-(7-bromo-8-hydroxyquinazolin-2-ylamino)benzenesulfonamide], the IC50 at PDK1 kinase (PDK1 Kinase Alpha Screen Assay) lay in the range of 5 to 10 µM. In the assay with A2780 cells (setting [2]), the EC50 is under 5 µM.

As to `CNS(=O)(=O)Cc1ccc(Nc2ncc3cccc(OC)c3n2)cc1` [Compound 498, 1-(4-(8-methoxyquinazolin-2-ylamino)phenyl)-N-methylmethanesulfonamide], at PDK1 kinase (PDK1 Kinase Alpha Screen Assay), the half-maximal inhibitory concentration (IC50) is under 5 µM. In the assay on A2780 cells (setting [2]), the EC50 was 5 to 10 µM.

In the case of `CC(C)Oc1cccc2cnc(Nc3ccc(S(=O)(=O)N4CCN(C)CC4)cc3)nc12` [Compound 499, 8-isopropoxy-N-(4-(4-methylpiperazin-1-ylsulfonyl)phenyl)quinazolin-2-amine], the half-inhibitory concentration (IC50) at PDK1 kinase (PDK1 Kinase Alpha Screen Assay) was under 5 µM. For the same compound, the EC50 in the assay on A2780 cells (setting [2]) was 5 to 10 µM.

For the compound `CN(C)CCOc1cccc2cnc(Nc3ccc(C(N)=O)cc3)nc12` [Compound 504, 4-(8-(2-(dimethylamino)ethoxy)quinazolin-2-ylamino)benzamide], at PDK1 kinase (PDK1 Kinase Alpha Screen Assay), the IC50 was under 5 µM. Moreover, the EC50 in the assay with A2780 cells (setting [2]) is under 5 µM.

In the case of `NC(=O)c1ccc(Nc2ncc3cccc(OC4CCCC4)c3n2)cc1` [Compound 505, 4-(8-(cyclopentyloxy)quinazolin-2-ylamino)benzamide], on PDK1 kinase (PDK1 Kinase Alpha Screen Assay), the concentration for half-maximal inhibition (IC50) is under 5 µM. Moreover, the EC50 in the assay on A2780 cells (setting [2]) is under 5 µM.

As to `CC(C)Oc1cccc2cnc(Nc3ccc(C(N)=O)cc3)nc12` [Compound 506, 4-(8-isopropoxyquinazolin-2-ylamino)benzamide], on PDK1 kinase (PDK1 Kinase Alpha Screen Assay), the IC50 is under 5 µM. For the same compound, in the assay with A2780 cells (setting [2]), the EC50 was under 5 µM.

For `NCCOc1cccc2cnc(Nc3ccccc3)nc12` [Compound 507, 8-(2-aminoethoxy)-N-phenylquinazolin-2-amine], at PDK1 kinase (PDK1 Kinase Alpha Screen Assay), the IC50 is under 5 µM. Further, the EC50 in the assay on A2780 cells (setting [2]) lay in the range of 5 to 10 µM.

For `CC(C)(C(N)=O)C(=O)NCCOc1cccc2cnc(Nc3ccccc3)nc12` [Compound 508, 2,2-dimethyl-N1-(2-(2-(phenylamino)quinazolin-8-yloxy)ethyl)malonamide], at PDK1 kinase (PDK1 Kinase Alpha Screen Assay), the IC50 fell in the range of 5 to 10 µM. In the assay with A2780 cells (setting [2]), the EC50 is 5 to 10 µM.

As for `NS(=O)(=O)c1ccc(Nc2ncc3cccc(OCCN4CCOCC4)c3n2)cc1` [Compound 510, 4-(8-(2-mropholinoethoxy)quinazolin-2-ylamino)benzenesulfonamide], the IC50 at PDK1 kinase (PDK1 Kinase Alpha Screen Assay) was under 5 µM. Besides, in the assay on A2780 cells (setting [2]), the EC50 was under 5 µM.
